Experimental data taken from patent publication US10166253B2, “Positively charged co-polymers for use as antimicrobial agents” (priority 2014, dated 2019).

Tests used:
[1] = test system: P. aeruginosa (Strain PAO1); assay: Antimicrobial susceptibility testing by flow cytometry-based assay (LIVE/DEAD BacLight, Syto9/PI); assay type: cell-based
Protocol: E. coli (strain NCTC 10418), P. aeruginosa (Strain PAO1) and S. aureus (Wood 46, NCTC 7121) cells were grown in 5 mL of Todd Hewitt Broth medium (THB; Sigma-Aldrich). Bacteria were cultivated at 37° C. for 15 h in a 15 mL tube to obtain late-log phase cultures. Bacterial cultures were pelleted at 3096 g for 10 minutes; the supernatant was discarded and bacteria were resuspended in phosphate-buffered saline (PBS) supplemented with 40 mg/ml human albumin to mimic chemical properties of blood. Bacteria were diluted to a standardized inoculum of 10^9 CFU/mL.
Bacteria were treated with GA, LL-37, Piperacillin/Tazobactam or Vancomycin in varying concentrations, i.e. 50, 25, 10 or 2 μg/ml, for 30 minutes. As a positive control, bacteria were treated with 7% isopropanol. Hereafter, bacteria were pelleted at 3096 g for 10 minutes; the supernatant was discarded and bacteria were resuspended in PBS. The antimicrobial effect was tested in a well-established and widely used flow cytometry-based assay (LIVE/DEAD® BacLight™ Bacterial Viability and Counting Kit (L34856), Molecular Probes/Invitrogen) according to manufacturer's manual.
For each bacteria, the flow cytometry-based assay was repeated four times.
The antibacterial effect of GA on the gram-negative strain P. aeruginosa was tested by carrying out an experiment as described in Example 1. […] Although the untreated control stained positive for PI, this seemed to be explained by the capability of intact P. aeruginosa to secrete large quantities of DNA to the extracellular milieu.

E. coli (NCTC 10418) [2] = assay: Antimicrobial susceptibility testing (MIC) by the oCelloScope system; assay type: cell-based, Escherichia coli; settings: CAMHBT broth, SESA growth curves
Protocol: (§1) E. coli (strain NCTC 10418) and S. aureus (Wood 46, NCTC 7121) were grown overnight in Sensititre® cation-adjusted Mueller-Hinton broth with TES (CAMHBT, TREK Diagnostic System). Bacterial cell suspensions were adjusted to 0.5 McFarland standard using a nephelometer. Subsequently, bacteria were diluted in CAMHBT according to the recommended final inoculum size for broth dilution (5×10^5 colony-forming units (CFU) ml^−1) (Wiegand, I., K. Hilpert, and R. E. Hancock, Agar and broth dilution methods to determine the minimal inhibitory concentration (MIC) of antimicrobial substances. Nat Protoc, 2008. 3(2): p. 163-75) and analyzed in Nunc Edge 96-well plates by the oCelloScope system.
(§2) The oCelloScope is a digital time-lapse microscopy technology that scans through a fluid sample generating series of images as described in 2013 by Fredborg et al. (Fredborg, M., et al., Real-time optical antimicrobial susceptibility testing. J Clin Microbiol, 2013. 51(7): p. 2047-53). As a result of the tilted imaging plane, the images recorded by the oCelloScope system constitute a parallelepipedum that forms the image stack. […] Growth kinetics was determined by image stack processing based on contrast based Segmentation and Extraction of Surface Area (SESA). […]
(§3) The effect of GA on bacterial growth was further evaluated using, an optical screening system (oCelloScope) (FIG. 6). […]

S. aureus (Wood 46) = assay: as above; assay type: cell-based, Staphylococcus aureus; settings: CAMHBT broth, SESA growth curves
Protocol: as §1, §2, §3

[3] = test system: P. aeruginosa (strain PAO1, ATCC 15692); assay: Colony-forming unit (CFU) counting; assay type: cell-based, Pseudomonas aeruginosa; settings: 30 minutes at 37° C. in PBS, in comparison with LL-37
Protocol: Late-log phase E. coli (strain NCTC 10418), P. aeruginosa (strain PAO1, ATCC 15692) and S. aureus (Wood 46, NCTC 7121) were resuspended in PBS and treated with different concentrations of glatiramer acetate (GA) or LL-37 (Innovagen, Lund, Sweden) and incubated on a shaker for 30 minutes at 37° C. Subsequently, a dilution series was performed to achieve a suitable amount of bacteria on the 5% blood agar plates. The 5% blood agar streak plates were cultured at 37° C. for 16 h and the resulting CFUs on the blood agar plates were imaged with a digital camera and counted with the aid of the software ImageJ 1.48v.

E. coli (NCTC 10418) [4] = assay: Binding of Alexa Fluor 488-labeled GA to bacteria (MFI by flow cytometry); set-up: species or system Escherichia coli; settings: PBS + 50 mM NaCl, total salt 200 mM, GA 50 and 10 μg/ml
Protocol: GA was diluted in freshly made 0.1 M NaHCO3 and labeled with Alexa Fluor 488 according to manufacturer's instruction. Late-log phase E. coli (strain NCTC 10418), P. aeruginosa (strain PAO1, ATCC 15692) and S. aureus (Wood 46, NCTC 7121) were resuspended in PBS or PBS supplemented with 50 mM NaCl; treated with either 50 μg/ml or 10 μg/ml Alexa Fluor® 488-labeled GA and incubated on a shaker at 37° C. for 30 minutes. Hereafter, bacteria were diluted 1:100 in PBS and analyzed on a Novocyte™ flow cytometer.
This constitutes a problem when for example treating patients with cystic fibrosis. These patients have a high salt concentration in their lungs of about 150-200 mM, and it is therefore critical that drugs used for treating these patients are active at such high salt concentrations (Gilljam H et al., Scand J Clin Lab Invest. 1989 April; 49(2):121-4). Therefore, the binding capacity of GA to bacteria resuspended in PBS or in PBS supplemented with 50 mM NaCl. PBS+50 mM NaCl results in a total salt concentration of 200 mM. […]
Mean Fluorescence intensities (MFI) were assessed by flow cytometry to quantify the binding capacity of GA to the bacterial membrane. […]

[5] = within the 30 minutes of treatment

Glatiramer acetate [GA]
antimicrobial activity (in words) [1, 5]: more potent than when treating bacteria with 7% isopropanol
decreased bacterial inoculum [1, 5]: ~75%
increased PI positivity ([1]; within the 30 minutes of treatment (FIG. 4 overview)): ~50%
MIC (E. coli (NCTC 10418) [2]): 31 µg/mL
MIC (S. aureus (Wood 46)): 500 µg/mL
antibacterial effect by CFU counting (in words) [3]: higher antimicrobial activity
binding capacity to bacteria (MFI, in words) (E. coli (NCTC 10418) [4]): retained its binding capacity
